Results reported in PubChem BioAssay AID316 (DTP/NCI, 2004).
Several values for one entry are separate records, joined by “and”; a condition that tells them apart may be missing. Equal values may be shown once. Inconclusive results and toxic doses are left out.

System: P1534 leukemia ip, CD2F1 mice, survival T/C
Experiment: NCI In Vivo Anticancer Drug Screen. Data for tumor model P1534 Leukemia (intraperitoneal) in CD2F1 (CDF1) mice
Conditions: higher = longer survival
Experimental: The antitumor activity of compounds was measured in mice bearing transplantable tumors. Survival or tumor size were measured and the results are expressed as the measurement made in the treated group (T) divided by the measurement made in the vehicle treated control group (C). The tumor model used in this assay is P1534 Leukemia (intraperitoneal) in CD2F1 (CDF1) mice

[1] = endpoint: mean survival time, dose: 50.0 mg/kg/injection, schedule: Q01DX010 (ip), vehicle: saline
[2] = endpoint: mean survival time, dose: 100.0 mg/kg/injection, schedule: Q01DX010 (ip), vehicle: saline
[3] = endpoint: mean survival time, dose: 200.0 mg/kg/injection, schedule: Q01DX010 (ip), vehicle: saline
[4] = endpoint: mean survival time, dose: 400.0 mg/kg/injection, schedule: Q01DX010 (ip), vehicle: saline
[5] = endpoint: mean survival time, dose: 12.5 mg/kg/injection, schedule: Q01DX010 (ip), vehicle: saline
[6] = endpoint: mean survival time, dose: 25.0 mg/kg/injection, schedule: Q01DX010 (ip), vehicle: saline
[7] = endpoint: mean survival time, dose: 7.5 mg/kg/injection, schedule: Q01DX010 (ip), vehicle: saline
[8] = endpoint: mean survival time, dose: 15.0 mg/kg/injection, schedule: Q01DX010 (ip), vehicle: saline
[9] = endpoint: mean survival time, dose: 30.0 mg/kg/injection, schedule: Q01DX010 (ip), vehicle: saline
[10] = endpoint: mean survival time, dose: 100.0 mg/kg/injection, schedule: Q01DX010 (ip), vehicle: water
[11] = endpoint: mean survival time, dose: 200.0 mg/kg/injection, schedule: Q01DX010 (ip), vehicle: water
[12] = endpoint: mean survival time, dose: 125.0 mg/kg/injection, schedule: Q01DX010 (ip), vehicle: saline
[13] = endpoint: mean survival time, dose: 250.0 mg/kg/injection, schedule: Q01DX010 (ip), vehicle: saline
[14] = endpoint: mean survival time, dose: 500.0 mg/kg/injection, schedule: Q01DX010 (ip), vehicle: saline
[15] = endpoint: mean survival time, dose: 5.0 mg/kg/injection, schedule: Q01DX010 (ip), vehicle: saline
[16] = endpoint: mean survival time, dose: 10.0 mg/kg/injection, schedule: Q01DX010 (ip), vehicle: saline
[17] = endpoint: mean survival time, dose: 20.0 mg/kg/injection, schedule: Q01DX010 (ip), vehicle: saline

CC1CCC(NC(=O)N(CCCl)N=O)CC1 (centres undefined)
T/C (endpoint: median survival time, dose: 1.0 mg/kg/injection, schedule: Q01DX005 (ip), vehicle: other): 111 % of control | T/C (endpoint: median survival time, dose: 4.0 mg/kg/injection, schedule: Q01DX005 (ip), vehicle: other): 255 % of control | T/C (endpoint: median survival time, dose: 8.0 mg/kg/injection, schedule: Q01DX005 (ip), vehicle: other): 255 % of control | T/C (endpoint: median survival time, dose: 16.0 mg/kg/injection, schedule: Q01DX005 (ip), vehicle: other): 115 % of control

CC(CCc1ccc(OC(=O)c2ccccc2)cc1)OC(=O)c1ccccc1 (centres undefined)
T/C [1]: 96 % of control | T/C [2]: 89 % of control | T/C [3]: 86 % of control | T/C [4]: 89 % of control

CS(=O)(=O)OCCCCOS(C)(=O)=O
T/C (endpoint: mean survival time, dose: 6.25 mg/kg/injection, schedule: Q01DX010 (ip), vehicle: saline): 106 % of control and 88 % of control | T/C [5]: 88 % of control and 100 % of control | T/C [6]: 112 % of control and 88 % of control | T/C [1]: 112 % of control and 100 % of control

CS(=O)(=O)OCC(O)C(O)C(O)C(O)COS(C)(=O)=O (centres undefined)
T/C [6]: 107 % of control | T/C [1]: 103 % of control and 100 % of control | T/C [2]: 107 % of control | T/C [3]: 107 % of control and 121 % of control

COc1ccc2cc3[n+](cc2c1O)CCc1cc2c(cc1-3)OCO2
T/C [5]: 111 % of control | T/C [6]: 123 % of control | T/C [1]: 115 % of control

Nc1nc(=S)c2ncn(C3OC(CO)C(O)C3O)c2[nH]1 (centres undefined)
T/C (endpoint: mean survival time, dose: 0.31 mg/kg/injection, schedule: Q01DX010 (ip), vehicle: saline): 103 % of control | T/C (endpoint: mean survival time, dose: 0.63 mg/kg/injection, schedule: Q01DX010 (ip), vehicle: saline): 103 % of control | T/C (endpoint: mean survival time, dose: 1.25 mg/kg/injection, schedule: Q01DX010 (ip), vehicle: saline): 106 % of control

Nc1nncs1
T/C [7]: 114 % of control

C[N+](C)(C)c1ncnc2nc[nH]c12
T/C [8]: 107 % of control | T/C [9]: 110 % of control | T/C (endpoint: mean survival time, dose: 60.0 mg/kg/injection, schedule: Q01DX010 (ip), vehicle: saline): 114 % of control

CC(=O)NCCCCCCNC(C)=O
T/C [1]: 93 % of control | T/C [2]: 96 % of control | T/C [3]: 96 % of control | T/C [4]: 100 % of control

CO[C@@H]1[C@@H](OC2OC(C)C(OC3CC(C)(O)C(OC(=O)CC(C)C)C(C)O3)C(N(C)C)C2O)[C@@H](CC=O)C[C@@H](C)C(=O)/C=C/C2O[C@H]2C[C@@H](C)OC(=O)C[C@H]1OC(C)=O (some centres undefined)
T/C (endpoint: mean survival time, dose: 50.0 mg/kg/injection, schedule: Q#A X020 (ip), vehicle: water): 96 % of control | T/C [10]: 92 % of control | T/C (endpoint: mean survival time, dose: 100.0 mg/kg/injection, schedule: Q#A X020 (ip), vehicle: water): 107 % of control and 109 % of control | T/C (endpoint: mean survival time, dose: 125.0 mg/kg/injection, schedule: Q#A X020 (ip), vehicle: water): 113 % of control | T/C (endpoint: mean survival time, dose: 150.0 mg/kg/injection, schedule: Q#A X020 (ip), vehicle: water): 115 % of control | T/C (endpoint: mean survival time, dose: 175.0 mg/kg/injection, schedule: Q#A X020 (ip), vehicle: water): 116 % of control | T/C [11]: 110 % of control | T/C (endpoint: mean survival time, dose: 250.0 mg/kg/injection, schedule: Q01DX010 (ip), vehicle: water): 121 % of control | T/C (endpoint: mean survival time, dose: 300.0 mg/kg/injection, schedule: Q01DX010 (ip), vehicle: water): 104 % of control | T/C (endpoint: mean survival time, dose: 1000.0 mg/kg/injection, schedule: Q01DX010 (oral), vehicle: water): 119 % of control

COc1cc(-c2ccc(Nc3ccccc3C(=O)O)c(OC)c2)ccc1Nc1ccccc1C(=O)O
T/C [5]: 107 % of control | T/C [6]: 114 % of control and 117 % of control | T/C [1]: 117 % of control

CC[C@]12C=CCN3CC[C@@]4(c5ccc(OC)cc5N(C)[C@H]4[C@@](O)(C(=O)OC)[C@@H]1O)[C@@H]32
T/C (endpoint: mean survival time, dose: 3.75 mg/kg/injection, schedule: Q01DX010 (ip), vehicle: saline): 93 % of control | T/C [7]: 100 % of control | T/C [8]: 93 % of control | T/C [9]: 100 % of control | T/C [1]: 96 % of control | T/C [2]: 92 % of control

CC(=O)NC1=C(N2CC2)C(=O)C(NC(C)=O)=C(N2CC2)C1=O
T/C (endpoint: mean survival time, dose: 31.3 micrograms/kg/injection, schedule: Q01DX010 (ip), vehicle: saline): 107 % of control | T/C (endpoint: mean survival time, dose: 62.5 micrograms/kg/injection, schedule: Q01DX010 (ip), vehicle: saline): 110 % of control

CCOC(N)=O
T/C [12]: 100 % of control | T/C [13]: 112 % of control and 100 % of control | T/C [14]: 112 % of control and 100 % of control | T/C (endpoint: mean survival time, dose: 1000.0 mg/kg/injection, schedule: Q01DX010 (ip), vehicle: saline): 88 % of control and 93 % of control

CC(=O)NCCCCCCCCCCNC(C)=O
T/C [1]: 100 % of control | T/C [2]: 100 % of control | T/C [3]: 92 % of control | T/C [4]: 96 % of control

COc1ccc2c3c(c4cc(OC)c(OC)cc4c2c1)C[C@H]1CCCCN1C3
T/C (endpoint: mean survival time, dose: 0.3 mg/kg/injection, schedule: Q01DX010 (ip), vehicle: saline): 100 % of control | T/C (endpoint: mean survival time, dose: 0.5 mg/kg/injection, schedule: Q01DX010 (ip), vehicle: saline): 113 % of control

NC(=O)c1cn[nH]c1N
T/C [10]: 100 % of control | T/C [11]: 93 % of control

CC(=O)OCC1OC(n2ncc(=O)[nH]c2=O)C(OC(C)=O)C1OC(C)=O (centres undefined)
T/C (endpoint: mean survival time, dose: 300.0 mg/kg/injection, schedule: Q01DX010 (ip), vehicle: saline): 89 % of control | T/C (endpoint: mean survival time, dose: 450.0 mg/kg/injection, schedule: Q01DX010 (ip), vehicle: saline): 96 % of control | T/C (endpoint: mean survival time, dose: 675.0 mg/kg/injection, schedule: Q01DX010 (ip), vehicle: saline): 100 % of control

O=C(NCCCCC(NC(=O)OCc1ccccc1)C(=O)NCCCNCCCCNCCCNC(=O)C(CCCCNC(=O)OCc1ccccc1)NC(=O)OCc1ccccc1)OCc1ccccc1 (centres undefined)
T/C (endpoint: mean survival time, dose: 2.5 mg/kg/injection, schedule: Q01DX010 (ip), vehicle: saline): 100 % of control | T/C [15]: 100 % of control | T/C [16]: 100 % of control

O=C(Nc1ccc(C2=NCCN2)cc1)c1cccc(C(=O)Nc2ccc(C3=NCCN3)cc2)c1
T/C (endpoint: mean survival time, dose: 8.0 mg/kg/injection, schedule: Q01DX010 (ip), vehicle: saline): 109 % of control | T/C (endpoint: mean survival time, dose: 16.0 mg/kg/injection, schedule: Q01DX010 (ip), vehicle: saline): 118 % of control | T/C (endpoint: mean survival time, dose: 32.0 mg/kg/injection, schedule: Q01DX010 (ip), vehicle: saline): 154 % of control | T/C (endpoint: mean survival time, dose: 64.0 mg/kg/injection, schedule: Q01DX010 (ip), vehicle: saline): 163 % of control and 168 % of control

Cc1cc(N(CCCl)CCCl)ccc1C=Nc1ccccc1-c1ccccc1
T/C [6]: 100 % of control | T/C [1]: 100 % of control | T/C [2]: 100 % of control

OCC1OC(n2cnc3c(Cl)ncnc32)C(O)C1O (centres undefined)
T/C (endpoint: mean survival time, dose: 62.5 mg/kg/injection, schedule: Q01DX010 (ip), vehicle: saline): 94 % of control and 100 % of control | T/C [12]: 100 % of control | T/C [13]: 111 % of control | T/C [14]: 105 % of control and 88 % of control

NC(N)=NCCCC(N)C(=O)NCCCCCCNCCCCCCNC(=O)C(N)CCCN=C(N)N (centres undefined)
T/C [15]: 107 % of control | T/C [16]: 96 % of control | T/C [17]: 100 % of control

C[n+]1c2ccccc2nc2c(N)cc(N)cc21
T/C (endpoint: mean survival time, dose: 5.2 mg/kg/injection, schedule: Q01DX010 (ip), vehicle: saline): 114 % of control

COc1cc2c3c(c4cc(OC)c(OC)cc4c2cc1OC)CN1CCC[C@H]1C3
T/C (endpoint: mean survival time, dose: 3.9 mg/kg/injection, schedule: Q01DX010 (ip), vehicle: saline): 115 % of control | T/C (endpoint: mean survival time, dose: 7.8 mg/kg/injection, schedule: Q01DX010 (ip), vehicle: saline): 107 % of control

O=[n+]1c2c(n([O-])c3ccccc31)-c1cccc3cccc-2c13
T/C [6]: 92 % of control and 96 % of control | T/C [1]: 103 % of control and 92 % of control | T/C [2]: 92 % of control and 96 % of control | T/C [3]: 92 % of control

Cc1cc(C)n(C(N)=O)n1
T/C (endpoint: mean survival time, dose: 150.0 mg/kg/injection, schedule: Q01DX010 (ip), vehicle: water): 96 % of control | T/C [11]: 111 % of control

Cn1c(N)nc2nc[nH]c2c1=S
T/C [16]: 100 % of control | T/C [17]: 100 % of control | T/C (endpoint: mean survival time, dose: 40.0 mg/kg/injection, schedule: Q01DX010 (ip), vehicle: saline): 96 % of control | T/C (endpoint: mean survival time, dose: 80.0 mg/kg/injection, schedule: Q01DX010 (ip), vehicle: saline): 110 % of control

CC(C)=CCC1=C(O)c2ccccc2C(=O)C1=O
T/C (endpoint: mean survival time, dose: 200.0 mg/kg/injection, schedule: Q01DX010 (oral), vehicle: other): 102 % of control | T/C (endpoint: mean survival time, dose: 300.0 mg/kg/injection, schedule: Q01DX010 (oral), vehicle: other): 115 % of control | T/C (endpoint: mean survival time, dose: 400.0 mg/kg/injection, schedule: Q01DX010 (oral), vehicle: other): 112 % of control | T/C (endpoint: mean survival time, dose: 600.0 mg/kg/injection, schedule: Q01DX010 (oral), vehicle: other): 103 % of control

OC(CBr)C(O)C(O)C(O)CBr (centres undefined)
T/C [5]: 103 % of control | T/C [6]: 103 % of control | T/C [1]: 103 % of control | T/C [2]: 103 % of control
